This assay relates to A673 NR0B1-luciferase reporter, viability-normalised luminescence. Put plainly: NR0B1 reporter signal reduction in A673 cells – cell-based, luciferase luminescence, cherry-pick, EWS/Fli inhibitor project, dose response (AID 686920).

Activity calls are given as the source filed them.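 Rule for the calls: active = fitted curve reaching 35% inhibition at a dose no higher than twice the top valid tested dose; inconclusive = flat fit with 30 to 70% inhibition, or a poor fit; inactive = the rest, including activity in the opposite direction.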

In the case of `CC1(C)N=C(N)N=C(N)N1c1ccc(OCCCOc2ccccc2)c(Cl)c1`, the AC35 is 2.61 µM.

Regarding `COc1ccc(CC(N)c2csc(NC(=O)Nc3cccc(C(F)(F)F)c3)n2)cc1` (stereo unspecified), the AC35 is 9.72 µM.

In the case of `CCOC(=O)C1CCCCN1C(=O)CCc1c(C)nc2cc(-c3ccccc3)nn2c1C` (stereo unspecified), the AC35 is 1.16 µM.

On to `O=C(NC1CCCC1)N1CCCCN2[C@@H](CO)[C@@H](c3ccc(/C=C/c4ccccc4)cc3)[C@@H]2C1`, for which the AC35 is 14.3 µM.

As for `O=C(O)c1ccccc1C(=O)Nc1ccc(Oc2ccc3ccccc3c2)cc1`, the AC35 is 5.69 µM.

For `C[C@@H]1CN([C@@H](C)CO)S(=O)(=O)c2ccc(C#CC(C)(C)O)cc2O[C@H]1CN(C)Cc1ccc(-c2ccccc2)cc1`, the AC35 is 2.8 µM.

On to `COc1cccc(CN2CCC2(C)C(=O)Nc2cccc3cccnc23)c1F` (stereo unspecified), for which the AC35 was 14.7 µM.

Consider `CN1c2ccc(-c3ccc(C#N)cc3)cc2[C@H]2[C@H](CCN2S(=O)(=O)c2cccc(F)c2)[C@H]1CO`, for which the AC35 was 1.74 µM.

With `O=C(/C=C/c1cc(Br)ccc1O)c1ccco1`, the AC35 was 10.7 µM.

As to `C[C@]12CC[C@H](O)C[C@H]1CC[C@@H]1[C@@H]2C[C@@H](O)[C@]2(C)[C@@H](C3=CC(=O)OC3)CC[C@]12O`, the AC35 was 1 µM.

On to `CC(C)(C)c1ccc(Oc2ccc(N)cn2)cc1`, for which the AC35 is 1.2 µM.

For the molecule `Cc1ccc(S(=O)(=O)N(C)C[C@@H]2Oc3cc(C#Cc4ccncc4)ccc3S(=O)(=O)N([C@@H](C)CO)C[C@H]2C)cc1`, the AC35 was 9.88 µM.

With `O=C(COC(=O)c1ccc[nH]c1=O)Nc1ccc(N2CCCCC2)cc1`, the AC35 is 0.283 µM.

Regarding `COC(=O)C[C@@H]1CC[C@@H]2[C@H](COc3ccc(NC(=O)Nc4ccc(C#N)cc4)cc3C(=O)N2C)O1`, the AC35 was 62.4 µM.

Consider `C[C@@H]1CN([C@@H](C)CO)C(=O)Cc2cc(N(C)C)ccc2O[C@H]1CN(C)Cc1ccc(C(=O)Nc2ccccc2N)cc1`, for which the AC35 was 11.4 µM.

On to `CCN(CC)c1ccc(C2NC(=O)c3ccccc3N2)cc1` (stereo unspecified), for which the AC35 is 3.8 µM.

Turning to `C=CCn1c(O)c(N=Nc2ccccc2)c2ccccc21`, the AC35 is 38.9 µM.

Take `C[C@]12CC[C@H]3[C@@H](CC[C@]4(O)C[C@@H](O)CC[C@]34C=O)[C@@]1(O)CC[C@@H]2C1=CC(=O)OC1`: the AC35 was 0.626 µM.

Regarding `CC(=O)Nc1cccc(-c2ccnc3c2CC(C)(C(=O)NCc2ccc(N(C)C)cc2)O3)c1` (stereo unspecified), the AC35 was 7.51 µM.

Consider `O=C(Nc1ccc(Br)cc1)c1ccc(F)c(S(=O)(=O)N2CCN(c3ccccn3)CC2)c1`, for which the AC35 was 7.79 µM.

As to `CC1(C)N=C(N)N=C(N)N1c1ccc(CCCCc2ccccc2)cc1`, the AC35 was 2.72 µM.

With `COc1cc(/C=C/C(=O)CC(=O)/C=C/c2ccc(O)c(OC)c2)ccc1O`, the AC35 was 7.91 µM.

For the molecule `CC(C)CC#Cc1ccc([C@@H]2[C@@H](CO)N3CCCCN(S(=O)(=O)c4ccc(F)cc4)C[C@H]23)cc1`, the AC35 is 14.1 µM.

Take `COc1cccc(-c2cc(NC=O)c3ncc(-c4ccc(C(C)=O)cc4)n3c2)c1`: the AC35 was 6.25 µM.

Take `N#C[C@H]1[C@H](c2ccc(-c3ccccc3F)cc2)[C@@H](CO)N1C(=O)Cc1ccccc1`: the AC35 was 3.31 µM.

Regarding `O=C(O)c1ccc2cc(-c3ccccc3)[nH]c2c1`, the AC35 was 6.18 µM.

Take `C[C@]12CC[C@H](O)C[C@H]1CC[C@@H]1[C@@H]2CC[C@]2(C)[C@@H](C3=CC(=O)OC3)CC[C@]12O`: the AC35 was 0.395 µM.

As for `CN(C)C(=O)c1cccc(-c2ccc(C3[C@@H]4CN(Cc5nccs5)C[C@H]3N4)cc2)c1` (stereo partly specified), the AC35 is > 68 µM (inactive).

Take `CCc1ccc(/C=C2\SC(=S)N(CCCC(=O)N3CCN(C)CC3)C2=O)cc1`: the AC35 was 21.3 µM.

With `COc1ccc(/C=C2\SC(=S)N(CCCC(=O)NC3CCCC3)C2=O)cc1OC`, the AC35 is 38.5 µM.

Take `COc1ccc(CN(C)C[C@H]2Oc3ccc(NC(=O)CCCCCC(=O)Nc4ccccc4N)cc3CC(=O)N([C@H](C)CO)C[C@H]2C)cc1`: the AC35 is 15.4 µM.

Take `C[C@@H]1O[C@@H](O[C@@H]2C=C3CC[C@@H]4C(CC[C@]5(C)[C@@H](c6ccc(=O)oc6)CC[C@]45O)[C@@]3(C)CC2)[C@H](O)[C@H](O)[C@H]1O` (stereo partly specified): the AC35 is under 0.03 µM.

As to `O=C(N/N=C/c1cnc(N2CCCCC2)s1)c1ccc(C(F)(F)F)cc1`, the AC35 is 56.8 µM.

On to `O=C(C[C@@H]1C[C@H]2c3cc(NS(=O)(=O)c4ccc(F)cc4)ccc3O[C@H]2[C@H](CO)O1)NCc1ccc(-c2ccccc2)cc1`, for which the AC35 was 2.03 µM.

With `CN(C)c1ccc(/C=N/Nc2nc3ccccc3o2)cc1`, the AC35 is 5.35 µM.

For `CN(C)c1ccc(N=Nc2ccccc2Br)cc1`, the AC35 is 21.3 µM.

On to `C(=Cc1nc2ccccc2o1)c1ccc2c(c1)OCO2`, for which the AC35 is 4.5 µM.

For `Cc1ccc(S(=O)(=O)Nc2ccc3c(c2)C(=O)N([C@H](C)CO)C[C@@H](C)[C@@H](CN(C)Cc2ccc(C(=O)Nc4ccccc4N)cc2)O3)cc1`, the AC35 is 9.6 µM.

Consider `CCN1C/C(=C/c2ccc(OC)c(O)c2)C(=O)/C(=C/c2ccc(OC)c(O)c2)C1`, for which the AC35 is 17.3 µM.

With `COCCCNc1ccn2nc(-c3ccccc3)cc2n1`, the AC35 is 10.1 µM.

As for `N#C[C@@H]1[C@H](c2ccc(C#Cc3cccc(F)c3)cc2)[C@@H](CO)N1C(=O)C1CCCC1`, the AC35 is 4.38 µM.

For `COc1ccc(S(=O)(=O)N2CCCc3nc(-c4ccc(F)cc4)ccc32)cc1`, the AC35 was 4.87 µM.

Regarding `Cc1ccccc1NC(=O)C(=Cc1ccc(C(=O)O)cc1)C(=O)Nc1ccccc1C`, the AC35 was 5.63 µM.

Consider `CCc1nc(N)nc(N)c1-c1ccc(Cl)c(N=[N+]=[N-])c1`, for which the AC35 is 6.23 µM.

Regarding `C[C@@H]1CN([C@@H](C)CO)C(=O)Cc2cc(NC(=O)Nc3ccc(C(F)(F)F)cc3)ccc2O[C@@H]1CN(C)Cc1ccc(C(=O)Nc2ccccc2N)cc1`, the AC35 is 7.91 µM.

As to `Cc1cc2sc3ccc(C#CC4(O)CCCCC4)cc3c(=O)c2cc1C`, the AC35 is under 0.03 µM.

As to `Nc1nc(=S)c2[nH]cnc2[nH]1`, the AC35 is 2.5 µM.

`Cc1sc2nc(CN3CCC(C)CC3)nc(Cl)c2c1C`: the AC35 is 63 µM.

In the case of `CC(=O)c1ccc(N=Nc2ccc(C)cc2)cc1`, the AC35 is 8.92 µM.

In the case of `COc1cc(-c2cnc3c(NC=O)cc(-c4cccc(NC(C)=O)c4)cn23)cc(OC)c1OC`, the AC35 was 0.298 µM.

Consider `O=C1NC(=O)N(Cc2ccco2)C(=O)/C1=C/C=C/c1ccco1`, for which the AC35 is 6.32 µM.

`COc1ccccc1-c1ccc(OCCCN2CCC(C(O)(c3ccccc3)c3ccccc3)CC2)cc1`: the AC35 was 13.3 µM.

In the case of `CCC1=Nc2cc(C(=O)NCC3CCCO3)ccc2Sc2ccc(Br)cc21` (stereo unspecified), the AC35 was 6.5 µM.

`CO[C@H]1CN(C)C(=O)c2cc(NC(=O)NC(C)C)ccc2OC[C@H](C)N(Cc2ccc(-c3ccccn3)cc2)C[C@@H]1C`: the AC35 was 5.22 µM.

For the molecule `O=c1ccc2ccccc2c2ccccc12`, the AC35 was 8.15 µM.

Take `O=C(O)c1ccc(N/N=C/c2c[nH]c3ccccc23)cc1`: the AC35 is 8.82 µM.

On to `CC(=O)Nc1ccc(S(=O)(=O)Nc2ccc(N3CCCCC3)cc2)cc1`, for which the AC35 is 8.66 µM.

Take `N#C[C@@H]1[C@H](c2ccc(C#Cc3ccc(F)cc3)cc2)[C@@H](CO)N1C(=O)Nc1ccc(F)cc1`: the AC35 is 5.54 µM.

In the case of `Cc1ccccc1N=CC1=C(O)c2ccccc2C1=O`, the AC35 was 2.72 µM.

`COc1ccc(NC(=O)N2CCCCN3[C@@H](CO)[C@H](c4ccc(C5=CCCCC5)cc4)[C@@H]3C2)cc1`: the AC35 is 15.8 µM.

`C=CCOc1ccccc1C(=O)/C=C1/C(=O)Nc2ccccc21`: the AC35 was 14.5 µM.

(Values after PubChem BioAssay AID686920 (Broad Institute, 2013).)
